Experimental findings from patent US8846947B2, “Benzimidazoles and related analogs as sirtuin modulators” (GlaxoSmithKline LLC, priority 2008, dated 2014) are described below.

The structures appear in SMILES notation. Where two headings read alike, the source gives them in different places. Where only a bound is given, the exact number is not on record here.

This experiment concerns the target T1, SIRT1 (Homo sapiens, UniProt Q96EB6).
T1 sequence (Q96EB6 1-747): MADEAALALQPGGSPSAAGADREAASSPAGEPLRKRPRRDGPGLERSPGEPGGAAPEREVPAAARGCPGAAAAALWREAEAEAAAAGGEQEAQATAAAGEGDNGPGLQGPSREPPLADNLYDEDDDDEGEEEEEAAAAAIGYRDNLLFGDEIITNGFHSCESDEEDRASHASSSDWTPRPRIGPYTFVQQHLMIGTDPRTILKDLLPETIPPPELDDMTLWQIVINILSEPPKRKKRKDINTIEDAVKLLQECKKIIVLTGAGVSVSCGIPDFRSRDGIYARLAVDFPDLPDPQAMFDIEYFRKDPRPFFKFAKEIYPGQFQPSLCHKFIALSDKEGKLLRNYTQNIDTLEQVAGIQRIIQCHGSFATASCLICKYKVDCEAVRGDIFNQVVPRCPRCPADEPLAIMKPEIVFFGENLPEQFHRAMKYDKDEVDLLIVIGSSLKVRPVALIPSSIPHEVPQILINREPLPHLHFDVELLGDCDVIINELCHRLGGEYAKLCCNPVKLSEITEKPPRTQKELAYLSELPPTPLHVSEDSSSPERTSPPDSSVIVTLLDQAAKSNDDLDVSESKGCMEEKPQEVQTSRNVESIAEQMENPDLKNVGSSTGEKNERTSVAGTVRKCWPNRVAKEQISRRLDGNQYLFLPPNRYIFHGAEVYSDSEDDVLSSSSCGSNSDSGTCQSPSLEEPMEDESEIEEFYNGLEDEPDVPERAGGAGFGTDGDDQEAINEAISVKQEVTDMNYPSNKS
Put plainly: Mass spectrometry based SIRT1 deacetylase activation assay (acetylated p53-derived peptide substrate). The format is biochemical.

The mark [1] stands for this setting: 0.5 μM peptide substrate, 120 μM βNAD+, 10 nM SIRT1, 25 min at 25° C.
Where [2] appears, read: 0.5 μM peptide substrate, 120 μM βNAD+, 10 nM SIRT1, 25 min at 25° C., read-out: EC1.5.
Where [3] appears, read: 0.5 μM peptide substrate, 120 μM βNAD+, 10 nM SIRT1, 25 minutes at 25° C.

As to `O=C(Nc1nccs1)c1cccc2[nH]c(-c3cccc(C(F)(F)F)c3F)nc12` [Compound 217], the EC1.5 result was “C (EC1.5 >25 uM)” and the “Fold Act. (percent maximum fold activation)” value is given as “B (Fold Activation <200%)”.
Consider `O=C(Nc1cnccn1)c1cccc2[nH]c(-c3cccc(OC(F)(F)F)c3)nc12` [Compound 205], for which the EC1.5 result is “A (EC1.5<1.0 uM)” and the “Fold Act. (percent maximum fold activation)” value is listed as “A (Fold activation >200%)”.
Take `CS(=O)(=O)c1ccc(-c2nc3c(C(=O)Nc4cccnc4)cccc3[nH]2)cc1` [Compound 407]: the “Fold Act. (percent maximum fold activation)” value under setting [1] is listed as “B (Fold Activation <200%)”. Moreover, the EC1.5 under setting [2] was > 25000 nM.
As for `Cc1cc(C)nc(NC(=O)c2cccc3[nH]c(-c4cnc5c(c4)OCCN5C)nc23)c1` [Compound 461], under setting [1], the “Fold Act. (percent maximum fold activation)” value is “A (Fold activation >200%)”. For the same molecule, under setting [2], the EC1.5 is < 1000 nM.
On to `O=C(Nc1nccs1)c1cccc2[nH]c(-c3cccc(C(F)(F)F)c3)nc12` [Compound 202], for which the EC1.5 result is on record as “A (EC1.5<1.0 uM)” and the “Fold Act. (percent maximum fold activation)” value is “A (Fold activation >200%)”.
With `O=C(Nc1cc[n+]([O-])cc1)c1cccc2[nH]c(-c3cc(F)ccc3C(F)(F)F)nc12` [Compound 322], the EC1.5 entry was “A (EC1.5<1.0 uM)” and the “Fold Act. (percent maximum fold activation)” value is on record as “A (Fold activation >200%)”.
For `CC(C)(C)NCCOc1ccccc1-c1nc2c(C(=O)Nc3nccs3)cccc2[nH]1` [Compound 580], the “Fold Act. (percent maximum fold activation)” value under setting [1] is on record as “A (Fold activation >200%)”. Besides, under setting [2], the EC1.5 fell in the range of 1000 to 25000 nM.
Take `O=C(Nc1cccc(OC2CCNC2)c1)c1cccc2[nH]c(-c3ccc(Cl)cc3C(F)(F)F)nc12` (stereo not shown) [Compound 599]: under setting [3], the EC1.5 result is given as “A (EC1.5<1.0 uM)” and the “Fold Act. (percent maximum fold activation)” value is given as “A (Fold activation >200%)”.
Turning to `O=C(Nc1nccs1)c1cccc2[nH]c(-c3cccc(N4CCOCC4)c3)nc12` [Compound 226], the EC1.5 entry is “A (EC1.5<1.0 uM)” and the “Fold Act. (percent maximum fold activation)” value is listed as “A (Fold activation >200%)”.
In the case of `O=C(Nc1nccs1)c1cccc2[nH]c(-c3ccc(Cl)cc3C(F)F)nc12` [Compound 562], the “Fold Act. (percent maximum fold activation)” value under setting [1] is “A (Fold activation >200%)”. Further, under setting [2], the EC1.5 is < 1000 nM.
Take `O=C(Nc1cccc(OCC(O)CO)c1)c1cccc2[nH]c(-c3ccc(Cl)cc3C(F)(F)F)nc12` (stereo not shown) [Compound 740]: under setting [3], the EC1.5 entry is reported as “A (EC1.5<1.0 uM)” and the “Fold Act. (percent maximum fold activation)” value is listed as “A (Fold activation >200%)”.
With `O=C(Nc1cccc(CN2CCCC2)n1)c1cccc2[nH]c(-c3ccccc3C(F)(F)F)nc12` [Compound 620, N-(6-(pyrrolidin-1-ylmethyl)pyridin-2-yl)-2-(2-(trifluoromethyl)phenyl)-1H-benzo[d]imidazole-4-carboxamide], under setting [3], the EC1.5 result is given as “A (EC1.5<1.0 uM)” and the “Fold Act. (percent maximum fold activation)” value is given as “A (Fold activation >200%)”.
`CC(C)N1CCN(CCOc2ccccc2-c2nc3c(C(=O)Nc4nccs4)cccc3[nH]2)CC1` [Compound 485]: the “Fold Act. (percent maximum fold activation)” value under setting [1] is reported as “A (Fold activation >200%)”. Moreover, the EC1.5 under setting [2] fell in the range of 1000 to 25000 nM.
Take `Cc1cnc(NC(=O)c2cccc3[nH]c(-c4ccccc4C(F)F)nc23)s1` [Compound 515]: the “Fold Act. (percent maximum fold activation)” value under setting [1] is “A (Fold activation >200%)”. For the same molecule, the EC1.5 under setting [2] was < 1000 nM.
`O=C(Nc1cccnc1)c1cccc2[nH]c(-c3ccc(N4CC[C@@H](F)C4)cc3C(F)(F)F)nc12` [Compound 575]: the “Fold Act. (percent maximum fold activation)” value under setting [1] is reported as “A (Fold activation >200%)”. Moreover, under setting [2], the EC1.5 was < 1000 nM.
On to `O=C(Nc1nccs1)c1cccc2[nH]c(-c3ccc(N4CCOCC4)nc3)nc12` [Compound 247, 2-(6-morpholinopyridin-3-yl)-N-(thiazol-2-yl)-1H-benzo[d]imidazole-4-carboxamide], for which the EC1.5 entry is reported as “A (EC1.5<1.0 uM)” and the “Fold Act. (percent maximum fold activation)” value is “A (Fold activation >200%)”.
For `O=C(NC1CCOC1=O)c1cccc2[nH]c(-c3ccnn3-c3ccccc3)nc12` (stereo not shown) [Compound 443], the “Fold Act. (percent maximum fold activation)” value under setting [1] is listed as “B (Fold Activation <200%)”. The EC1.5 under setting [2] is > 25000 nM.
With `O=C(Nc1ccccn1)c1cncc2[nH]c(-c3ccc(Cl)cc3C(F)(F)F)nc12` [Compound 649], under setting [3], the EC1.5 entry is listed as “A (EC1.5<1.0 uM)” and the “Fold Act. (percent maximum fold activation)” value was “A (Fold activation >200%)”.
For `Cc1cc(-c2nc3c(C(=O)Nc4nccs4)cccc3[nH]2)n(C)n1` [Compound 281], the EC1.5 result is listed as “A (EC1.5<1.0 uM)” and the “Fold Act. (percent maximum fold activation)” value is “A (Fold activation >200%)”.
As to `O=C(Nc1cccc(OC[C@@H](O)CO)c1)c1cccc2[nH]c(-c3cc(F)ccc3C(F)F)nc12` [Compound 720], under setting [3], the EC1.5 result is recorded as “A (EC1.5<1.0 uM)” and the “Fold Act. (percent maximum fold activation)” value was “A (Fold activation >200%)”.
As to `O=C(Nc1cccc2[nH]c(-c3cccc(C(F)(F)F)c3)nc12)c1cccnc1` [Compound 334], the EC1.5 entry was “B (EC1.5 1-25 uM)” and the “Fold Act. (percent maximum fold activation)” value was “A (Fold activation >200%)”.
Turning to `O=C(Nc1nccs1)c1cccc2[nH]c(-c3cccnc3N3CCNCC3)nc12` [Compound 282], the EC1.5 result is listed as “B (EC1.5 1-25 uM)” and the “Fold Act. (percent maximum fold activation)” value is listed as “A (Fold activation >200%)”.
As for `O=C(Nc1cccnc1)c1cc(N2CCOCC2)cc2[nH]c(-c3ccccc3C(F)(F)F)nc12` [Compound 630], under setting [3], the EC1.5 entry was “A (EC1.5<1.0 uM)” and the “Fold Act. (percent maximum fold activation)” value is reported as “A (Fold activation >200%)”.
Regarding `O=C(Nc1nccs1)c1cccc2[nH]c(-c3ccc(C(F)(F)F)cc3)nc12` [Compound 209], the EC1.5 result is “C (EC1.5 >25 uM)” and the “Fold Act. (percent maximum fold activation)” value was “B (Fold Activation <200%)”.
Regarding `O=C(Nc1cccc(OC[C@@H](O)CO)c1)c1cncc2[nH]c(-c3ccccc3C(F)F)nc12` [Compound 714], under setting [3], the EC1.5 result is listed as “A (EC1.5<1.0 uM)” and the “Fold Act. (percent maximum fold activation)” value is reported as “A (Fold activation >200%)”.
For `O=C(Nc1cc[n+]([O-])cc1)c1cccc2[nH]c(-c3ccc(Cl)cc3C(F)(F)F)nc12` [Compound 338], the EC1.5 result is given as “A (EC1.5<1.0 uM)” and the “Fold Act. (percent maximum fold activation)” value was “A (Fold activation >200%)”.
Turning to `O=C(Nc1ccccn1)c1cccc2[nH]c(-c3ccccc3OC3CCNCC3)nc12` [Compound 538], the “Fold Act. (percent maximum fold activation)” value under setting [1] is “A (Fold activation >200%)”. The EC1.5 under setting [2] is 1000 to 25000 nM.
As for `O=C(Nc1cccc(OC[C@@H](O)CO)c1)c1cccc2[nH]c(-c3ccccc3C(F)F)nc12` [Compound 700], under setting [3], the EC1.5 entry is “A (EC1.5<1.0 uM)” and the “Fold Act. (percent maximum fold activation)” value is “A (Fold activation >200%)”.
For `O=C(Nc1nccs1)c1cccc2[nH]c(-c3ccccn3)nc12` [Compound 215], the EC1.5 result was “B (EC1.5 1-25 uM)” and the “Fold Act. (percent maximum fold activation)” value was “A (Fold activation >200%)”.
For `CC(C)(C)c1cccc(-c2nc3c(C(=O)Nc4nccs4)cccc3[nH]2)c1OCCN1CCOCC1` [Compound 587], the “Fold Act. (percent maximum fold activation)” value under setting [1] is “B (Fold Activation <200%)”. The EC1.5 under setting [2] was in the range of 1000 to 25000 nM.
`O=C(Nc1nccs1)c1cccc2[nH]c(-c3ccnc(N4CCOCC4)c3)nc12` [Compound 269]: the EC1.5 result is listed as “A (EC1.5<1.0 uM)” and the “Fold Act. (percent maximum fold activation)” value was “A (Fold activation >200%)”.
Consider `O=C(Nc1nccs1)c1cccc2[nH]c(-c3ccccc3)nc12` [Compound 200], for which the EC1.5 entry is on record as “B (EC1.5 1-25 uM)” and the “Fold Act. (percent maximum fold activation)” value is given as “A (Fold activation >200%)”.
Take `Cc1nc(-c2ccccc2)sc1-c1nc2c(C(=O)Nc3ccccn3)cccc2[nH]1` [Compound 409]: the “Fold Act. (percent maximum fold activation)” value under setting [1] is “A (Fold activation >200%)”. Moreover, the EC1.5 under setting [2] is < 1000 nM.
With `O=C(Nc1cccnc1)c1cccc2[nH]c(-c3cccc(OC4CCNCC4)c3)nc12` [Compound 567], under setting [1], the “Fold Act. (percent maximum fold activation)” value is given as “A (Fold activation >200%)”. In addition, the EC1.5 under setting [2] was < 1000 nM.
Turning to `O=C(Nc1cccc(CN2CCCC2)n1)c1cccc2[nH]c(-c3ccc(Cl)cc3C(F)(F)F)nc12` [Compound 622], under setting [3], the EC1.5 result is reported as “A (EC1.5<1.0 uM)” and the “Fold Act. (percent maximum fold activation)” value is reported as “A (Fold activation >200%)”.
Take `O=C(Nc1ccccn1)c1cccc2[nH]c(-c3ccc(F)cc3OCCN3CCOCC3)nc12` [Compound 504]: the “Fold Act. (percent maximum fold activation)” value under setting [1] is given as “B (Fold Activation <200%)”. Also, the EC1.5 under setting [2] was in the range of 1000 to 25000 nM.
In the case of `O=C(Nc1cccc(OCC(O)CO)c1)c1cccc2[nH]c(-c3cccnc3)nc12` (stereo not shown) [Compound 794], under setting [3], the EC1.5 result is recorded as “A (EC1.5<1.0 uM)” and the “Fold Act. (percent maximum fold activation)” value is recorded as “A (Fold activation >200%)”.
`O=C(Nc1nccs1)c1cccc2[nH]c(-c3cccnc3)nc12` [Compound 227]: the EC1.5 entry was “B (EC1.5 1-25 uM)” and the “Fold Act. (percent maximum fold activation)” value is recorded as “A (Fold activation >200%)”.
